# Tests used:
# [1] = system: EGFR phosphorylation (Tyr1068) in A431 (WT-EGFR) cells; assay: HTRF cellular EGFR phosphorylation; format: cell-based; conditions: Homo sapiens, A-431, mean ± SD of 4 experiments, read-out: A431 pEGFR IC50
# Description: Cells were plated at 20,000 cells per well in 96-well plates and placed at 37 °C with 5% CO2. Compounds were reconstituted in DMSO. Once adhered (after 24 h), cells were treated with compounds at a final concentration of 0.1% DMSO in media. Compounds were added to duplicate wells and incubated 37 °C for 3 h with 5% CO2. For A431 cells 0.5 h before the end of incubation; 100 ng/mL of EGF (Thermo Fisher, Cat. No. PHG0311) was added to all compound-treated cells as well as control. Compound and media were removed from the cells, and then 50 μL of HTRF lysis buffer was added (lysis buffer was diluted from 4× stock to 1× in deionized (DI) water, with 1% blocking agent also added). Cells were lysed on a plate shaker (2000 rpm) for 30 min at room temperature. pEGFR expression was assessed using the Human Phospho-EGFR (Tyr1068) cellular detection kit (Revvity, Cat. No. 64EG1PEH). Total EGFR expression was monitored using the Human Total EGFR cellular detection kit (Revvity, Cat. No. 64NG1PEH) as per the manufacturer’s instructions. Fluorescence emission was read at two different wavelengths (665 and 620 nm) on a PHERAstar microplate reader (BMG Labtech). Results were calculated as the ratio of pEGFR/total EGFR and then the percentage of 0 μM control.
# A431 (WT-EGFR) cells = assay: Adherent cell growth inhibition (CyQUANT); format: cell-based; conditions: Homo sapiens, A-431; replenishment of compound every 72 h
# Description: (§1) For adherent cell assays, each cell line was plated on day 0 in a 96-well plate at a density known to allow for exponential growth over 72 h. After 24 h, the compounds were diluted to the required concentrations in DMEM + 10% FBS media, maintaining a consistent final DMSO concentration of 0.1%. […] Growth inhibition was then assessed using a CyQUANT Direct Cell Proliferation assay (Invitrogen Cat No. C35011) following the manufacturer’s instructions. Fluorescence intensity (ex/em 480/520 nm) values were acquired using a PHERAstar microplate reader reader (BMG Labtech) and values were expressed as a percentage of the average DMSO treated value.
# [2] = system: H1975 (L858R, T790M) cells; assay: Adherent cell growth inhibition (CyQUANT); format: cell-based; conditions: Homo sapiens, NCI-H1975; replenishment of compound every 72 h; read-out: H1975 EGFR GI50
# Description: as §1
# TYK2 = assay: Kinase selectivity panel; format: binding; conditions: 1.0 µM
compound,measurement,setting,value
"C#Cc1cc(=O)n(-c2ccccc2)c2nc(Nc3ccc(N(C)CCN(C)C)cc3)ncc12 [Compound 7, 2-((4-((2-(Dimethylamino)ethyl)(methyl)amino)phenyl)amino)-5-ethynyl-8-phenylpyrido[2,3-d]pyrimidin-7(8H)-one]",IC50,[1],4100 nM
same,GI50,A431 (WT-EGFR) cells,2700 ± 1100 nM
same,GI50,[2],1100 ± 1100 nM
same,Mean (Percent Control),TYK2,58.5 Percent Control
